Measurements: patent publication US20250313574A1, “SIALIC ACID DERIVATIVES AND METHODS OF USING SAME” (EISAI R&D MANAGEMENT CO., LTD., priority 2022, published 2025)
pEC50: −log10 of the molar value.

Experiments:
[1] = target: Recombinant Human Siglec-3/CD33 protein (His-CD33) (Homo sapiens (Human), UniProt P20138); assay: Differential scanning fluorimetry (DSF) thermal shift assay; format: binding
[2] = target: Recombinant human CD33 protein (Homo sapiens (Human), UniProt P20138); assay: CD33 competitive binding assay for HTS drug screen (fluorescent multivalent sialic acid probe)
Method in brief: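 Recombinant human CD33, coated overnight at 4° C from 10 μg/ml in pH 5.5 acetate, was preincubated briefly with compound. It was then exposed to a multivalent neutravidin/FITC/sialic acid analog A-375 probe (final 5 μM neutravidin, 15 μM A-375, 5 μM FITC) for 30 min at room temperature. After washing, bound FITC fluorescence was read.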

[3] = difference in thermal melt of CD33 protein (0.5 μM) with 50 μM compound
[4] = thermal melt shift of 0.5 μM CD33 protein with 50 μM compound

Recombinant Human Siglec-3/CD33 protein (His-CD33), sequence (P20138 18-259): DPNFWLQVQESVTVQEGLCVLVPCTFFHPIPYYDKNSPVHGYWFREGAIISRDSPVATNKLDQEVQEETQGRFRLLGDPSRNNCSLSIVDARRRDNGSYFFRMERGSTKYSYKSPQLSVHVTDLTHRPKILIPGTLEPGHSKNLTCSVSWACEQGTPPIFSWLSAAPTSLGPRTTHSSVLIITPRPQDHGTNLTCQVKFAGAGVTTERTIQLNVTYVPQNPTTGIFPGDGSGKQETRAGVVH
Recombinant human CD33 protein, sequence (P20138 18-259): as above

| Compound | DSF (dTmD) [1, 3] | pEC50 [2] | DSF (dTmD) [1, 4] |
| --- | --- | --- | --- |
| CC(=O)N[C@H]1[C@H]([C@H](O)[C@H](O)CNC(=O)c2cc(C)c(O)c(C)c2)O[C@@](C/C=C/c2cccc(CNC(=O)c3ccc4[nH]ccc4c3)c2)(C(=O)O)C[C@@H]1O [A-234] | 4.6 °C | 6.03 |  |
| CC(=O)N[C@H]1[C@H]([C@H](O)[C@H](O)CNC(=O)c2cc(C)c(O)c(C)c2)O[C@@](CCN2CCN(C)C[C@@]23CCN(C(=O)OC(C)(C)C)C3)(C(=O)O)C[C@@H]1O [A-010] |  | 7.82 | 13.5 |
| CC(=O)N[C@H]1[C@H]([C@H](O)[C@H](O)CNC(=O)c2ccc(C)c(F)c2)O[C@@](CCN2CCOC[C@@]23CCN(C(=O)OC(C)(C)C)C3)(C(=O)O)C[C@@H]1O [A-149] |  | 6.88 | 10.7 |
| CC(=O)N[C@H]1[C@H]2O[C@](C(=O)O)(C/C=C/COC[C@@H](NC(=O)OC(C)(C)C)COCCCOc3c(C)cc(cc3C)C(=O)NC[C@@H](O)[C@H]2O)C[C@@H]1O [A-343] | 4.6 °C | 5.18 |  |
| CC(=O)N[C@H]1[C@H]([C@H](O)[C@H](O)CNC(=O)c2cc(C)c(O)c(C)c2)O[C@@](C/C=C/c2cccc(CNC(=O)c3ccc4[nH]ccc4c3)c2)(C(=O)O)C[C@@H]1O [A-242] | 7.6 °C | 6.30 |  |
| Cc1cc2cc(C)c1OCCO[C@@H]1C[C@H](OC/C=C/CC[C@]3(C(=O)O)C[C@H](O)[C@@H](NC(=O)Cn4cc(C5CCCCC5)nn4)[C@@H](O3)[C@H](O)[C@H](O)CNC2=O)N(C(=O)C2CCCOC2)C1 (some centres unmarked) [A-358] | 3.5 °C | 5.03 |  |
| CC(=O)N[C@H]1[C@H]([C@H](O)[C@H](O)CNC(=O)c2ccc3ncccc3n2)O[C@@](CCN2CCOC[C@@]23CCN(C(=O)OC(C)(C)C)C3)(C(=O)O)C[C@@H]1O [A-114] |  | 7.66 | 12.4 |
| CCN(CC)C(=O)N1CC[C@@]2(COCCN2CC[C@]2(C(=O)O)C[C@H](O)[C@@H](NC(C)=O)[C@H]([C@H](O)[C@H](O)CNC(=O)c3cc(C)c(O)c(C)c3)O2)C1 [A-066] |  | 6.81 | 8.4 |
| CC(=O)N[C@H]1[C@H]([C@H](O)[C@H](O)CNC(=O)c2cc(C)cc(C)c2)O[C@@](CCN2CCOC[C@@]23CCN(C(=O)OC(C)(C)C)C3)(C(=O)O)C[C@@H]1O [A-190] |  | 6.92 | 10.1 |
| CC(=O)N[C@H]1[C@H]([C@H](O)[C@H](O)CNC(=O)c2cc(C)c(O)c(C)c2)O[C@@](CCN2CCOC[C@@]23CCN(C(=O)C2CC4(C2)CC(F)(F)C4)C3)(C(=O)O)C[C@@H]1O [A-069] |  | 6.91 | 8.3 |
| CC(=O)N[C@H]1[C@H]([C@H](O)[C@H](O)CNC(=O)c2ccc3[nH]nc(F)c3c2)O[C@@](CCN2CCOC[C@@]23CCN(C(=O)OC(C)(C)C)C3)(C(=O)O)C[C@@H]1O [A-128] |  | 7.30 | 11.5 |
| CC(=O)N[C@H]1[C@H]([C@H](O)[C@H](O)CNC(=O)c2cc(C)c(O)c(C)c2)O[C@@](C/C=C/c2cccc(CNC(=O)c3cccc(NC(C)(C)C)c3)c2)(C(=O)O)C[C@@H]1O [A-251] | 4.3 °C | 5.01 |  |
| CC(=O)N[C@H]1[C@H]([C@H](O)[C@H](O)CNC(=O)c2cc(C)c(O)c(C)c2)O[C@@](CC2OC(C)(C)O[C@H]2c2cccc3c2CN(C(=O)OC(C)(C)C)C3)(C(=O)O)C[C@@H]1O (some centres unmarked) [A-314] | 0.1 °C | 5.11 |  |
| CC(=O)N[C@H]1[C@H]([C@H](O)[C@H](O)CNC(=O)c2ccc3cn[nH]c3c2)O[C@@](CCN2CCOC[C@@]23CCN(C(=O)OC(C)(C)C)C3)(C(=O)O)C[C@@H]1O [A-151] |  | 6.69 | 8.9 |
| CC(=O)NC1[C@H]([C@H](O)[C@H](O)CNC(=O)c2cc(C)c(O)c(C)c2)O[C@@](CC(=O)N2CCOC[C@]23CCN(C(=O)OC(C)(C)C)C3)(C(=O)O)C[C@@H]1O (some centres unmarked) [A-220] | 9.3 °C | 7.26 |  |
| CC(=O)N[C@H]1[C@H]2O[C@](C(=O)O)(C/C=C/c3cccc(c3)[C@@H](NC(=O)C3CCCOC3)CCCCc3cc(cc(Cl)c3O)C(=O)NC[C@@H](O)[C@H]2O)C[C@@H]1O (some centres unmarked) [A-353] | 3.6 °C | 4.72 |  |
| CC(=O)N[C@H]1[C@H]([C@H](O)[C@H](O)CNC(=O)c2cc(C)c(O)c(C)c2)O[C@@](CCN2CCOC[C@@]23CCN(c2ccccn2)C3)(C(=O)O)C[C@@H]1O [A-037] |  | 7.41 | 9.6 |

| Compound | DSF (dTmD) [1, 3] | pEC50 [2] | DSF (dTmD) [1, 4] |
| --- | --- | --- | --- |
| CC(=O)N[C@H]1[C@H]([C@H](O)[C@H](O)CNC(=O)c2cc(C)c(O)c(C)c2)O[C@@](CCN2CCOC[C@@]23CCN(C(=O)N[C@H](C)c2ccccc2)C3)(C(=O)O)C[C@@H]1O [A-047] |  | 7.66 | 12.9 |
| CC(=O)N[C@H]1[C@H]([C@H](O)[C@H](O)CNC(=O)c2cc(Cl)c(O)c(Cl)c2)O[C@@](CC2OC(C)(C)O[C@H]2c2cccc(C(=O)NCc3ccccc3)c2)(C(=O)O)C[C@@H]1O (some centres unmarked) [A-321] | 7.2 °C | 6.66 |  |
| CC(=O)N[C@H]1[C@H]([C@H](O)[C@H](O)CNC(=O)c2cc(C)c(F)c(C)c2)O[C@@](CCN2CCOC[C@@]23CCN(C(=O)OC(C)(C)C)C3)(C(=O)O)C[C@@H]1O [A-192] |  | 7.33 | 12.1 |
| Cc1cc(C(=O)NC[C@@H](O)[C@@H](O)[C@@H]2O[C@@](C/C=C/c3cccc(CNC(=O)c4cnccn4)c3)(C(=O)O)C[C@H](O)[C@H]2NC(=O)Cn2cc(C3CCCCC3)nn2)cc(C)c1O [A-270] | 6.0 °C | 5.55 |  |
| CC(=O)N[C@H]1[C@H]([C@H](O)[C@H](O)CNC(=O)c2ccc(O)c(NC=O)c2)O[C@@](CCN2CCOC[C@@]23CCN(C(=O)OC(C)(C)C)C3)(C(=O)O)C[C@@H]1O [A-152] |  | 6.29 | 7.4 |
| CC(=O)N[C@H]1[C@H]([C@H](O)[C@H](O)CNC(=O)c2cc(C)c(O)c(C)c2)O[C@@](CCN2CCOC[C@@]23CCN(C(=O)C2CCCC2)C3)(C(=O)O)C[C@@H]1O [A-060] |  | 7.19 | 11.2 |
| CC(=O)N[C@H]1[C@H]([C@H](O)[C@H](O)CNC(=O)c2cc(C)c(O)c(C)c2)O[C@@](CCN2CCOC[C@@]23CCN(C(=O)NCc2ccccc2)C3)(C(=O)O)C[C@@H]1O [A-079] |  | 6.82 | 9.1 |
| CC(=O)N[C@H]1[C@H]([C@H](O)[C@H](O)CNC(=O)c2cnn(C)c2)O[C@@](CCN2CCOC[C@@]23CCN(C(=O)OC(C)(C)C)C3)(C(=O)O)C[C@@H]1O [A-177] |  | 6.17 | 7.5 |
| C=C[C@H]1CN(C(=O)OC(C)(C)C)C[C@@]1(C)NCC[C@]1(C(=O)O)C[C@H](O)[C@@H](NC(C)=O)[C@H]([C@H](O)[C@H](O)CNC(=O)c2cc(C)c(O)c(C)c2)O1 [A-034] |  | 6.06 | 6.7 |
| CC(=O)N[C@H]1[C@H]([C@H](O)[C@H](O)CNC(=O)c2cc(C)on2)O[C@@](CCN2CCOC[C@@]23CCN(C(=O)OC(C)(C)C)C3)(C(=O)O)C[C@@H]1O [A-188] |  | 5.68 | 4.5 |
| COc1cc(C(=O)NC[C@@H](O)[C@@H](O)[C@@H]2O[C@@](CCN3CCOC[C@@]34CCN(C(=O)OC(C)(C)C)C4)(C(=O)O)C[C@H](O)[C@H]2NC(C)=O)ccc1C#N [A-165] |  | 5.94 | 5.7 |
| CC(=O)N[C@H]1[C@H]([C@H](O)[C@H](O)CNC(=O)c2ccc(=O)n(C)c2)O[C@@](CCN2CCOC[C@@]23CCN(C(=O)OC(C)(C)C)C3)(C(=O)O)C[C@@H]1O [A-170] |  | 5.41 | 6.0 |
| CC(=O)N[C@H]1[C@H]([C@H](O)[C@H](O)CNC(=O)c2cc(C)c(O)c(C)c2)O[C@@](C/C=C/c2cccc(-c3cc(N)on3)c2)(C(=O)O)C[C@@H]1O [A-291] | 2.9 °C | 5.37 |  |
| Cc1cc(C(=O)NC[C@@H](O)[C@@H](O)[C@@H]2O[C@@](OC3CCCCC3NC(=O)CN(C)C(=O)OCc3ccccc3)(C(=O)O)C[C@H](O)[C@H]2NC(=O)Cn2cc(C3CCCCC3)nn2)cc(C)c1O (some centres unmarked) [A-325] | 3.3 °C | 4.88 |  |
| Cc1cc(C(=O)NC[C@@H](O)[C@@H](O)[C@@H]2O[C@@](OC3CCCCC3NC(=O)Cn3cc(Cn4ncc5ccccc5c4=O)nn3)(C(=O)O)C[C@H](O)[C@H]2NC(=O)Cn2cc(C3CCCCC3)nn2)cc(C)c1O (some centres unmarked) [A-331] | 4.9 °C | 5.36 |  |
| CC(=O)N[C@H]1[C@H]([C@H](O)[C@H](O)CNC(=O)c2cccc(N(C)C)c2)O[C@@](CCN2CCOC[C@@]23CCN(C(=O)OC(C)(C)C)C3)(C(=O)O)C[C@@H]1O [A-183] |  | 6.76 | 10.3 |
| CC(=O)N[C@H]1[C@H]([C@H](O)[C@H](O)CNC(=O)c2cc(C)c(O)c(C)c2)O[C@@](C/C=C/c2cc(CNC(=O)C3CCCOC3)ccc2C)(C(=O)O)C[C@@H]1O (some centres unmarked) [A-290] | 2.0 °C | 4.69 |  |
